Measurements taken from PubChem BioAssay (NCI).
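Test compounds were applied to cells in 96-well plates for 48 hours at 5 doses. GI50: concentration for 50% inhibition of growth. TGI marks complete inhibition of growth.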

What was measured:
Test in all cases: NCI anticancer screen, dose series, 48 h
[1] = system: MDA-MB-231 breast
[2] = system: 786-0 renal
[3] = system: MOLT-4 leukemia
[4] = system: SNB-75 CNS
[5] = system: MCF7 breast
[6] = system: RXF 393 renal
[7] = system: MDA-MB-435
[8] = system: HCT-116 colon
[9] = system: NCI-H522 lung
[10] = system: HOP-92 NSCLC
[11] = system: HCT-15 colon
[12] = system: BT-549 breast
[13] = system: U251 CNS
[14] = system: COLO 205 colon
[15] = system: UACC-62 melanoma
[16] = system: LOX IMVI melanoma
[17] = system: EKVX NSCLC
[18] = system: UO-31 renal
[19] = system: SF-268 CNS
[20] = system: SK-MEL-28 melanoma
[21] = system: TK-10 renal
[22] = system: A498 renal
[23] = system: SK-MEL-5 melanoma
[24] = system: OVCAR-5 ovarian
[25] = system: OVCAR-3 ovarian
[26] = system: A549 NSCLC
[27] = system: CAKI-1 renal
[28] = system: NCI-H23 lung
[29] = system: NCI-H460 lung
[30] = system: SNB-19 CNS
[31] = system: HT29 colon
[32] = system: T-47D breast
[33] = system: DU-145 prostate
[34] = system: CCRF-CEM leukemia
[35] = system: RPMI-8226 leukemia
[36] = system: ACHN renal
[37] = system: OVCAR-4 ovarian
[38] = system: SF-295 CNS
[39] = system: HOP-62 NSCLC
[40] = system: PC-3 prostate
[41] = system: NCI/ADR-RES ovarian
[42] = system: IGROV1 ovarian
[43] = system: OVCAR-8 ovarian
[44] = system: MALME-3M melanoma
[45] = system: SK-MEL-2 melanoma
[46] = system: K-562 leukemia
[47] = system: HCC-2998 colon
[48] = system: SN12C renal
[49] = system: KM12 colon
[50] = system: M14 melanoma
[51] = system: SW-620 colon
[52] = system: UACC-257 melanoma
[53] = system: NCI-H226 lung
[54] = system: SF-539 CNS
[55] = system: SK-OV-3 ovarian

SMILES: Cc1cc(C(=O)NC(C)(C)C)cc(C#Cc2ccc3c4c(oc3c2)C(C)(C)c2cc(NS(C)(=O)=O)ccc2C4=O)n1
- GI50 [1]: 3.49 µM
- TGI [1]: > 100 µM
- GI50 [2]: 1.7 µM
- TGI [2]: 12.5 µM
- GI50 [3]: 2.39 µM
- TGI [3]: > 100 µM
- GI50 [4]: 1.22 µM
- TGI [4]: 22.4 µM
- GI50 [5]: 1.76 µM
- TGI [5]: > 100 µM
- GI50 [6]: 0.535 µM
- TGI [6]: 3.34 µM
- GI50 [7]: 0.518 µM
- TGI [7]: 21.1 µM
- GI50 [8]: 1.69 µM
- TGI [8]: > 100 µM
- GI50 [9]: 4.54 µM
- TGI [9]: > 100 µM
- GI50 [10]: 0.102 µM
- TGI [10]: 2.44 µM
- GI50 [11]: 1.93 µM
- TGI [11]: > 100 µM
- GI50 [12]: 1.26 µM
- TGI [12]: 8.1 µM
- GI50 [13]: 3.1 µM
- TGI [13]: > 100 µM
- GI50 [14]: 1.34 µM
- TGI [14]: 5.5 µM
- GI50 [15]: 1.4 µM
- TGI [15]: > 100 µM
- GI50 [16]: 2.59 µM
- TGI [16]: > 100 µM
- GI50 [17]: 4.98 µM
- TGI [17]: > 100 µM
- GI50 [18]: 1.2 µM
- TGI [18]: > 100 µM
- GI50 [19]: 3.34 µM
- TGI [19]: > 100 µM
- GI50 [20]: 1.93 µM
- TGI [20]: > 100 µM
- GI50 [21]: 3.99 µM
- TGI [21]: > 100 µM
- GI50 [22]: 2.1 µM
- TGI [22]: > 100 µM
- GI50 [23]: 1.84 µM
- TGI [23]: 5.31 µM
- GI50 [24]: 1.33 µM
- TGI [24]: > 100 µM
- GI50 [25]: 2.82 µM
- TGI [25]: 31.8 µM
- GI50 [26]: 3.01 µM
- TGI [26]: > 100 µM
- GI50 [27]: 2.51 µM
- TGI [27]: > 100 µM
- GI50 [28]: 2.63 µM
- TGI [28]: > 100 µM
- GI50 [29]: 2.31 µM
- TGI [29]: > 100 µM
- GI50 [30]: 3.23 µM
- TGI [30]: > 100 µM
- GI50 [31]: 1.2 µM
- TGI [31]: > 100 µM
- GI50 [32]: 2.41 µM
- TGI [32]: > 100 µM
- GI50 [33]: 3.17 µM
- TGI [33]: > 100 µM
- GI50 [34]: 2.12 µM
- TGI [34]: > 100 µM
- GI50 [35]: 1.11 µM
- TGI [35]: 4.67 µM
- GI50 [36]: 1.78 µM
- TGI [36]: > 100 µM
- GI50 [37]: 3.2 µM
- TGI [37]: > 100 µM
- GI50 [38]: 2.12 µM
- TGI [38]: 5.64 µM
- GI50 [39]: 2.31 µM
- TGI [39]: > 100 µM
- GI50 [40]: 2.96 µM
- TGI [40]: > 100 µM
- GI50 [41]: 2.86 µM
- TGI [41]: > 100 µM
- GI50 [42]: 2.59 µM
- TGI [42]: > 100 µM
- GI50 [43]: 3.09 µM
- TGI [43]: > 100 µM
- GI50 [44]: 1.53 µM
- TGI [44]: > 100 µM
- GI50 [45]: 1.98 µM
- TGI [45]: 7.87 µM
- GI50 [46]: 2.31 µM
- TGI [46]: > 100 µM
- GI50 [47]: 3.06 µM
- TGI [47]: > 100 µM
- GI50 [48]: 1.95 µM
- TGI [48]: > 100 µM
- TGI [49]: 40.7 µM
- GI50 [50]: 1.26 µM
- TGI [50]: 18.6 µM
- GI50 [51]: 1.03 µM
- TGI [51]: > 100 µM

SMILES: COc1ccc(C(=O)n2nc(/C=C/c3ccc(O)c(OC)c3)cc2/C=C/c2ccc(O)c(OC)c2)cc1
- GI50 [1]: 0.575 µM
- TGI [1]: 22.6 µM
- GI50 [2]: 0.445 µM
- TGI [2]: 1.84 µM
- GI50 [4]: 0.395 µM
- TGI [4]: 1.64 µM
- GI50 [5]: 0.303 µM
- TGI [5]: 1.57 µM
- GI50 [8]: 0.362 µM
- TGI [8]: 2.69 µM
- GI50 [9]: 0.267 µM
- TGI [9]: 0.785 µM
- GI50 [10]: 0.609 µM
- TGI [10]: 4.88 µM
- GI50 [11]: 0.338 µM
- TGI [11]: 5.96 µM
- GI50 [12]: 0.466 µM
- TGI [12]: 2.32 µM
- GI50 [13]: 0.597 µM
- TGI [13]: 10.9 µM
- GI50 [52]: 2.03 µM
- TGI [52]: 12.1 µM
- GI50 [16]: 0.467 µM
- TGI [16]: 3.15 µM
- GI50 [18]: 0.393 µM
- TGI [18]: 3.2 µM
- GI50 [19]: 0.476 µM
- TGI [19]: 8.42 µM
- GI50 [20]: 0.602 µM
- TGI [20]: 7.45 µM
- GI50 [21]: 1.91 µM
- TGI [21]: 6.66 µM
- GI50 [22]: 2.25 µM
- TGI [22]: 7.26 µM
- GI50 [24]: 2.61 µM
- TGI [24]: > 100 µM
- GI50 [25]: 0.449 µM
- TGI [25]: 2.28 µM
- GI50 [26]: 1.37 µM
- TGI [26]: 14 µM
- GI50 [27]: 0.452 µM
- TGI [27]: 15.3 µM
- GI50 [28]: 0.84 µM
- TGI [28]: 4.69 µM
- GI50 [29]: 0.37 µM
- TGI [29]: 13.3 µM
- GI50 [30]: 1.09 µM
- TGI [30]: 18.8 µM
- GI50 [53]: 2.06 µM
- TGI [53]: 8.52 µM
- GI50 [31]: 0.482 µM
- TGI [31]: 2.24 µM
- GI50 [32]: 0.737 µM
- TGI [32]: 3.95 µM
- GI50 [33]: 0.668 µM
- TGI [33]: 4.56 µM
- GI50 [54]: 0.365 µM
- TGI [54]: 2.21 µM
- GI50 [34]: 0.304 µM
- TGI [34]: > 100 µM
- GI50 [36]: 0.388 µM
- TGI [36]: 17.2 µM
- GI50 [37]: 0.695 µM
- TGI [37]: 5.44 µM
- GI50 [55]: 0.465 µM
- TGI [55]: 1.8 µM
- GI50 [38]: 1.64 µM
- TGI [38]: 6.28 µM
- GI50 [40]: 0.496 µM
- TGI [40]: 3.78 µM
- GI50 [41]: 0.492 µM
- TGI [41]: 10.5 µM
- GI50 [43]: 0.86 µM
- TGI [43]: 13.1 µM
- GI50 [44]: 0.556 µM
- TGI [44]: 3.59 µM
- GI50 [45]: 0.36 µM
- TGI [45]: 0.934 µM
- GI50 [46]: 0.404 µM
- TGI [46]: > 100 µM
- GI50 [47]: 2.16 µM
- TGI [47]: 9.19 µM
- GI50 [48]: 0.635 µM
- TGI [48]: 19.3 µM
- GI50 [49]: 0.387 µM
- TGI [49]: 18.1 µM
- GI50 [50]: 0.328 µM
- TGI [50]: 1.32 µM
- GI50 [51]: 0.455 µM
- TGI [51]: 11.9 µM
